Values quoted from earlier work, collected in patent US12569478B2 (priority 2021, dated 2026).

Details: in vivo

For `C=CCN1CC[C@]23c4c5ccc(O)c4O[C@H]2C(=O)CC[C@@]3(O)[C@H]1C5` [naloxone], the half-life is given as about 60 min.
